In brackets after ≈: the same amount, converted by molar mass.

Among the test systems are Escherichia coli 55B5; Escherichia coli UB1005; Pseudomonas aeruginosa; Salmonella typhimurium; Staphylococcus aureus; Escherichia coli; Lactococcus garvieae; Streptococcus iniae; Vibrio alginolyticus; Vibrio harveyi; Vibrio parahaemolyticus; Bacillus cereus C737.
Common to all, as to assay: ≥ marks a high value that may be exact or a test limit, other limits are often not marked, values filed in µg/mL are converted to µM
Experiment [1] deals with Enterobacter cloacae BCRC 10401.
The test system of experiment [2] is Escherichia coli BCRC 10675.
Experiment [3] has as its system Klebsiella aerogenes BCRC 10370.
The test system of experiment [4] is Klebsiella oxytoca BCRC 13985.
For experiment [5], the system named is Listeria monocytogenes BCRC 14845.
Experiment [6] relates to Pseudomonas aeruginosa BCRC 10944.
For experiment [7], the system named is Staphylococcus aureus BCRC 10780.
For experiment [8], the system named is Staphylococcus aureus BCRC 10781.
For experiment [9], the system named is Staphylococcus xylosus BCRC 12930.
The test system of experiment [10] is Streptococcus equinus BCRC 14729.
The test system of experiment [11] is Vibrio alginolyticus BCRC 12829.
The subject of experiment [12] is Vibrio anguillarum serotype O1.
Experiment [13] has as its system Vibrio parahaemolyticus BCRC 10806.
Experiment [14] concerns Yersinia enterocolitica BCRC 13999.
In experiment [15] the test system is Pseudomonas aeruginosa PAO1.
The subject of experiment [16] is Pseudomonas aeruginosa PAK.
Experiment [17] deals with Streptococcus gordonii Challis DL1.
Experiment [18] has as its system Streptococcus mitis ATCC 903.
The subject of experiment [19] is Streptococcus mutans UA159.
In experiment [20] the test system is Streptococcus sanguinis NY101.
The subject of experiment [21] is Lacticaseibacillus casei ATCC 4646.
Experiment [22] deals with Veillonella atypica PK1910.

On to `CC[C@H](C)[C@H](NC(=O)[C@H](C)N)C(=O)N[C@@H](Cc1cnc[nH]1)C(=O)N[C@@H](CCCCN)C(=O)N[C@@H](CC(C)C)C(=O)N[C@@H](C)C(=O)N[C@@H](Cc1cnc[nH]1)C(=O)N[C@@H](CCCCN)C(=O)N[C@@H](CC(C)C)C(=O)N[C@@H](CC(C)C)C(=O)N[C@@H](CCCCN)C(=O)N[C@@H](CCCCN)C(=O)N[C@@H](CC(C)C)C(=O)N[C@@H](CC(C)C)C(=O)N[C@@H](CCCCN)C(=O)N[C@@H](C)C(=O)N[C@H](C(=O)N[C@@H](CCCCN)C(=O)N[C@@H](CCCCN)C(=O)N[C@@H](CC(C)C)C(=O)N[C@@H](C)C(=O)N[C@@H](CCCCN)C(=O)O)C(C)C` [AIHKLAHKLLKKLLKAVKKLAK], for which the MIC against Escherichia coli 55B5 stood at 2 µM (≈ 4.99 µg/mL); with Escherichia coli UB1005, 2.5 µM (≈ 6.23 µg/mL); against Pseudomonas aeruginosa it was 4.5 µM (≈ 11.2 µg/mL); against Salmonella typhimurium, 6 µM (≈ 15 µg/mL); in the experiment with Staphylococcus aureus, 25 µM (≈ 62.3 µg/mL).

As to `CC[C@H](C)[C@H](NC(=O)[C@H](C)N)C(=O)N[C@@H](Cc1cnc[nH]1)C(=O)N[C@@H](CCCCN)C(=O)N[C@@H](CC(C)C)C(=O)N[C@@H](C)C(=O)N[C@@H](Cc1cnc[nH]1)C(=O)N[C@@H](CCCCN)C(=O)N[C@@H](CC(C)C)C(=O)N[C@H](C(=O)N[C@@H](CCCCN)C(=O)N[C@@H](CCCCN)C(=O)N[C@H](C(=O)N[C@@H](CC(C)C)C(=O)N[C@@H](CCCN=C(N)N)C(=O)N[C@@H](C)C(=O)N[C@H](C(=O)N[C@@H](CCCCN)C(=O)N[C@@H](CCCCN)C(=O)N[C@@H](CC(C)C)C(=O)N[C@@H](C)C(=O)N[C@@H](CC(N)=O)C(=O)O)C(C)C)[C@@H](C)O)[C@@H](C)O` [AIHKLAHKLTKKTLRAVKKLAN], the MIC was 10.5 µM (≈ 26.1 µg/mL) in the experiment on Escherichia coli 55B5, 12.5 µM (≈ 31 µg/mL) against Escherichia coli UB1005, 12.5 µM (≈ 31 µg/mL) against Pseudomonas aeruginosa and 10.5 µM (≈ 26.1 µg/mL) against Salmonella typhimurium.

Consider `CC[C@H](C)[C@H](NC(=O)[C@H](Cc1ccccc1)NC(=O)[C@H](CCCCN)NC(=O)[C@H](CCCCN)NC(=O)[C@H](C)NC(=O)[C@@H](NC(=O)[C@@H](NC(=O)[C@H](C)NC(=O)[C@H](Cc1ccccc1)NC(=O)[C@H](CCCCN)NC(=O)[C@H](CCCCN)NC(=O)[C@H](C)NC(=O)[C@H](C)NC(=O)[C@H](CC(N)=O)NC(=O)[C@H](C)NC(=O)CN)[C@@H](C)O)[C@@H](C)CC)C(=O)N[C@@H](CC(N)=O)C(=O)N[C@@H](Cc1ccc(O)cc1)C(=O)N[C@@H](CC(C)C)C(=O)N[C@@H](Cc1c[nH]c2ccccc12)C(=O)O` [GANAAKKFATIAKKFINYLW], for which the minimal inhibitory concentration (MIC) in experiment [1] is 3.55 µM (≈ 8 µg/mL); in experiment [2], 7.09 µM (≈ 16 µg/mL); against Escherichia coli, 14.2 µM (≈ 32 µg/mL); in [3], 3.55 µM (≈ 8 µg/mL); in experiment [4] it was 14.2 µM (≈ 32 µg/mL); against Lactococcus garvieae, no less than 56.7 µM. Moreover, the MIC in experiment [5] was 3.55 µM (≈ 8 µg/mL); in experiment [6], 7.09 µM (≈ 16 µg/mL); in experiment [7] it was 7.09 µM (≈ 16 µg/mL); in [8], 7.09 µM (≈ 16 µg/mL); in experiment [9], 3.55 µM (≈ 8 µg/mL); in experiment [10], no less than 56.7 µM. Also, the MIC with Streptococcus iniae was no less than 56.7 µM; in [11], 28.4 µM (≈ 64 µg/mL); against Vibrio alginolyticus, 3.55 µM (≈ 8 µg/mL); in [12], 3.55 µM (≈ 8 µg/mL); against Vibrio harveyi, 3.55 µM (≈ 8 µg/mL); in experiment [13], 28.4 µM (≈ 64 µg/mL). Further, the figures for the MIC (against Vibrio parahaemolyticus; in experiment [14]) were 1.77 µM (≈ 4 µg/mL) and 28.4 µM (≈ 64 µg/mL), respectively.

As to `CC[C@H](C)[C@H](NC(=O)[C@H](C)NC(=O)CNC(=O)[C@@H](NC(=O)[C@@H](NC(=O)[C@H](CCCCN)NC(=O)[C@H](CCCCN)NC(=O)[C@@H](NC(=O)[C@@H](NC(=O)[C@H](CC(=O)O)NC(=O)[C@H](Cc1ccccc1)NC(=O)[C@H](CC(C)C)NC(=O)CN)[C@@H](C)CC)C(C)C)C(C)C)C(C)C)C(=O)NCC(=O)N[C@@H](CO)C(=O)N[C@@H](CC(C)C)C(=O)O` [GLFDIVKKVVGAIGSL], the MIC in the experiment with Bacillus cereus C737 was no less than 79.2 µM; in the experiment on Escherichia coli UB1005 it was no less than 79.2 µM; in experiment [15], greater than 79.2 µM.

For `CC[C@H](C)[C@H](NC(=O)[C@H](Cc1ccccc1)NC(=O)CNC(=O)CNC(=O)[C@H](CO)NC(=O)[C@H](Cc1ccccc1)NC(=O)[C@H](CCC(N)=O)NC(=O)[C@H](CCCCN)NC(=O)[C@H](CC(C)C)NC(=O)[C@H](CC(C)C)NC(=O)[C@H](CCCCN)NC(=O)[C@H](CC(C)C)NC(=O)[C@H](CC(C)C)NC(=O)[C@H](CCC(N)=O)NC(=O)[C@H](CCCCN)NC(=O)[C@H](CC(C)C)NC(=O)[C@H](CC(C)C)NC(=O)[C@H](CCC(N)=O)NC(=O)[C@@H](N)CC(C)C)C(=O)N[C@@H](CCCCN)C(=O)N[C@@H](Cc1cnc[nH]1)C(=O)N[C@@H](Cc1ccccc1)C(=O)N[C@H](C(=O)N[C@@H](Cc1cnc[nH]1)C(=O)N[C@@H](CCCN=C(N)N)C(=O)N[C@@H](Cc1ccccc1)C(N)=O)[C@@H](C)CC` [LQLLKQLLKLLKQFSGGFIKHFIHRF], the MIC in experiment [16] was 10.1 µM (≈ 32 µg/mL); against Staphylococcus aureus, 10.1 µM (≈ 32 µg/mL); in [17], 5.07 µM (≈ 16 µg/mL); in experiment [18], 10.1 µM (≈ 32 µg/mL); in experiment [19] it was 2.54 µM (≈ 8 µg/mL); in [20], 5.07 µM (≈ 16 µg/mL).

With `CC(C)C[C@H](NC(=O)[C@H](CC(C)C)NC(=O)[C@H](Cc1cnc[nH]1)NC(=O)[C@H](Cc1cnc[nH]1)NC(=O)[C@H](CC(C)C)NC(=O)[C@H](CCCCN)NC(=O)[C@H](CCCCN)NC(=O)[C@H](CC(C)C)NC(=O)[C@H](CC(C)C)NC(=O)[C@H](CCCN=C(N)N)NC(=O)[C@H](CCCN=C(N)N)NC(=O)[C@H](Cc1c[nH]c2ccccc12)NC(=O)[C@@H](N)CCCN=C(N)N)C(=O)N[C@@H](Cc1cnc[nH]1)C(N)=O` [RWRRLLKKLHHLLH], the MIC in [21] is 8.39 µM (≈ 16 µg/mL); in experiment [16] it was 4.2 µM (≈ 8 µg/mL); in the experiment with Staphylococcus aureus, 8.39 µM (≈ 16 µg/mL); in experiment [17], 8.39 µM (≈ 16 µg/mL); in [18] it was 16.8 µM (≈ 32 µg/mL); in experiment [19], 4.2 µM (≈ 8 µg/mL). For the same compound, the MIC in [20] is 8.39 µM (≈ 16 µg/mL); in experiment [22], 2.1 µM (≈ 4 µg/mL).

For the origin of these results see DBAASP.
